From patent US4120864A, “1,2,4-4H-triazole derivatives” (Rohm and Haas Company, priority 1972, dated 1978) come the findings set out here.

Where a name gives a salt, the structure may show the parent alone. Read-outs that look alike come from different tables or passages of the source.

Common to all, as to assay type: in vivo
Assay [1] concerns wheat leaf rust, Puccinia recondita.
The test system is the same in assay [2]. Nature of the assay: whole plant or invertebrate. To be noted: foliar; for pest or weed control at 280.212 g/ha: read-out: % Control (without rain), foliar, 0.25 lb.; for pest or weed control at 1120.85 g/ha: read-out: % Control (without rain), foliar, 1 lb.
Assay [3] shares this test system. The assay can be described thus: whole plant or invertebrate. To be noted: foliar; for pest or weed control at 280.212 g/ha: read-out: % Control (with 1" of rain), foliar, 0.25 lb., 1" of rain; for pest or weed control at 1120.85 g/ha: read-out: % Control (with 1" of rain), foliar, 1 lb., 1" of rain.
Assay [4] shares this test system. Nature of the assay: Foliar systemic activity on leaf rust. An excerpt:
Another type of systemic test was run in which pots of approximately 5 inch high wheat plants were sprayed with varying concentrations of the test compound. Thirty-six hours later they were sprayed six minutes in a rain machine which amounted to about one inch of normal rainfall. The plants were then placed in a greenhouse for 7 days and then inoculated with a spore suspension of wheat leaf rust, Puccinia recondita. About 7 days later lesion counts were made on ten leaves representing the sprayed leaves and new growth from each replicate and compared with similar pots of wheat plants which were untreated with a chemical and the percent disease control determined. Disease control on the new growth is a measure of systemic activity. The commercial product known by the trademarked name Plantvax, which is 2,3-dihydro-5-carboxanilido-6-methyl-1,4-oxathiin-4,4-dioxide, was used as a standard.

As for `CC(C)CCn1cnnc1` [Example 8, 4-isopentyl-1,2,4-triazole], the “% Systemic Wheat Leaf Rust Control” value in assay [1] (20 ppm in soil) worked out at 100%. In assay [2], the pest or weed control at 280.212 g/ha is 98% and the pest or weed control at 1120.85 g/ha was 99%. For the same molecule, in assay [3], the pest or weed control at 280.212 g/ha came to 98% and the pest or weed control at 1120.85 g/ha was determined as 100%.
For `CCCCn1c(S)nnc1C(=O)OCC` [Example 98, sodium salt of 3-mercapto-4-butyl-5-ethoxycarbonyl-1,2,4-triazole], the results for the “% Systemic Wheat Leaf Rust Control” value in assay [1] (2.5 ppm in soil), in assay [1] (5 ppm in soil) and in assay [1] (10 ppm in soil) were 85%, 97% and 99%, respectively. Further, the results for the “% Control (without rain)” value in assay [2] (0.25 lb.) and in assay [2] (1 lb.) were 86% and 100%, respectively. Moreover, the “% Control (with 1" of rain)” value in assay [3] (0.25 lb.) and in assay [3] (1 lb.) was 100% in each case.
As for `Clc1ccc(-n2cnnc2)nc1` [Example 63, 4-(5-chloro-2-pyridyl)-1,2,4-triazole], the “% Systemic Wheat Leaf Rust Control” value in assay [1] (20 ppm in soil) was 95%. For the same molecule, in assay [2], the pest or weed control at 280.212 g/ha turned out to be 90% and the pest or weed control at 1120.85 g/ha was 95%. In assay [3], the pest or weed control at 280.212 g/ha came out at 45% and the pest or weed control at 1120.85 g/ha was found to be 85%.
With `CCCCn1cnnc1SC(=O)c1ccco1` [Example 124, 3-furoylmercapto-4-n-butyl-1,2,4-triazole], the “% Systemic Wheat Leaf Rust Control” value in assay [1] (2.5 ppm in soil) is 94%; in assay [1] (5 ppm in soil) it was 99%; in assay [1] (10 ppm in soil) it was 99%. Further, the pest or weed control at 280.212 g/ha in assay [2] and in assay [3] was 100% each time. Besides, the pest or weed control at 1120.85 g/ha in assay [2] and in assay [3] was 100% each time.
On to `CCCCCCn1cnnc1` [Example 9, 4-n-hexyl-1,2,4-triazole], for which the “% Systemic Wheat Leaf Rust Control” value in assay [1] (2.5 ppm in soil) came to 77%; in assay [1] (5 ppm in soil) it was 92%. Besides, the pest or weed control at 280.212 g/ha in assay [2] and in assay [3] was 100% each time. Also, the pest or weed control at 1120.85 g/ha in assay [2] and in assay [3] was 100% throughout.
In the case of `CCCCn1cnn(CCC#N)c1=S` [Example 106, 2-(2-cyanoethyl)-4-n-butyl-1,2,4-triazoline-3-thione], the figures for the “% Systemic Wheat Leaf Rust Control” value in assay [1] (2.5 ppm in soil), in assay [1] (5 ppm in soil) and in assay [1] (10 ppm in soil) were 82%, 86% and 92%, respectively. In addition, the pest or weed control at 280.212 g/ha in assay [2] is 100%; in assay [3], 99%. The pest or weed control at 1120.85 g/ha in assay [2] and in assay [3] was 100% in each case.
With `Clc1ccc(-n2cnnc2)cc1Cl` [Example 57, 4-(3,4-dichlorophenyl)-1,2,4-triazole], the “% Systemic Wheat Leaf Rust Control” value in assay [1] (2.5 ppm in soil) was found to be 54%; in assay [1] (10 ppm in soil) it was 68%. Further, the pest or weed control at 280.212 g/ha in assay [2] stood at 80%; in assay [3] it was 40%. In addition, the results for the pest or weed control at 1120.85 g/ha in assay [2] and in assay [3] were 90% and 60%, respectively.
For the molecule `CCCCn1c(SC(=S)N(C)C)nnc1C(=O)O` [Example 101, 3-dimethylthiocarbamoylmercapto-4-n-butyl-5-carboxy-1,2,4-triazole], the “% Systemic Wheat Leaf Rust Control” value in assay [1] (2.5 ppm in soil) came to 88%; in assay [1] (5 ppm in soil), 96%; in assay [1] (10 ppm in soil), 100%. For the same molecule, the pest or weed control at 280.212 g/ha in assay [2] and in assay [3] was 100% in each case. In addition, the pest or weed control at 1120.85 g/ha in assay [2] and in assay [3] was 100% in each case.
As to `CC(C)Cn1cnnc1` [Example 4, 4-isobutyl-1,2,4-triazole], the “% Systemic Wheat Leaf Rust Control” value in assay [1] (20 ppm in soil) is 100%. Further, the values for the pest or weed control at 280.212 g/ha in assay [2] and in assay [3] were 95% and 30%, respectively. Further, the pest or weed control at 1120.85 g/ha is 95% in assay [2] and 60% in assay [3].
On to `CCCCn1cnnc1SCCOc1ccccc1` [Example 109, 3-(2-phenoxyethylmercapto)-4-n-butyl-1,2,4-triazole], for which, in assay [2], the pest or weed control at 280.212 g/ha is 100% and the pest or weed control at 1120.85 g/ha is 100%. For the same molecule, in assay [3], the pest or weed control at 280.212 g/ha was determined as 96% and the pest or weed control at 1120.85 g/ha amounted to 100%.
As to `C#CCn1cnnc1` [Example 15, 4-propargyl-1,2,4-triazole], in assay [2], the pest or weed control at 280.212 g/ha was 100% and the pest or weed control at 1120.85 g/ha came out at 100%. In assay [3], the pest or weed control at 280.212 g/ha came to 99% and the pest or weed control at 1120.85 g/ha was 100%.
Turning to `Clc1ccc(Cn2cnnc2)cc1Cl` [Example 53, 4-(3,4-dichloroenzyl)-1,2,4-triazole], in assay [2], the pest or weed control at 280.212 g/ha came out at 60% and the pest or weed control at 1120.85 g/ha was 70%. Further, in assay [3], the pest or weed control at 280.212 g/ha was 10% and the pest or weed control at 1120.85 g/ha was found to be 30%.
`COc1ccc(-n2cnnc2)cc1` [Example 60, 4-(4-methoxyphenyl)-1,2,4-triazole]: in assay [2], the pest or weed control at 280.212 g/ha came out at 100% and the pest or weed control at 1120.85 g/ha was determined as 100%. In assay [3], the pest or weed control at 280.212 g/ha was determined as 95% and the pest or weed control at 1120.85 g/ha is 97%.
As for `C#CC(C)(C)n1cnnc1` [Example 16, 4-(1,1-dimethylpropargyl)-1,2,4-triazole], the pest or weed control at 280.212 g/ha in assay [2] and in assay [3] was 0% in each case. The pest or weed control at 1120.85 g/ha in assay [2] and in assay [3] was 0% in each case.
With `N#CCCn1ncn(-c2ccccc2)c1=S` [Example 126, 2-(2-cyanoethyl)-4-phenyl-1,2,4-triazoline-3-thione], the “% Rust Control, New growth” value stood at 42% in assay [4] (1/2 lb./100 gal.), 27% in assay [4] (1/6 lb./100 gal.) and 0% in assay [4] (1/12 lb./100 gal.). Moreover, the “% Rust Control, Sprayed Leaf” value in assay [4] (1/2 lb./100 gal.) is on record as 13%; in assay [4] (1/6 lb./100 gal.), 0%; in assay [4] (1/12 lb./100 gal.), 0%. Besides, the pest or weed control at 280.212 g/ha stood at 93% in assay [2] and 83% in assay [3]. In addition, the pest or weed control at 1120.85 g/ha in assay [2] and in assay [3] was 96% throughout.
On to `COc1ccc(SCCn2cnnc2)cc1` [Example 32, 4-(2-(4-methoxythiophenoxy)ethyl)-1,2,4-trianzole], for which the pest or weed control at 280.212 g/ha stood at 95% in assay [2] and 30% in assay [3]. The pest or weed control at 1120.85 g/ha in assay [2] is 99%; in assay [3] it was 85%.
As for `CCCCn1cnnc1SC(=O)c1ccc(Br)cc1` [Example 119, 3-(4-bromobenzoylmercapto)-4-n-butyl-1,2,4-triazole], the pest or weed control at 280.212 g/ha in assay [2] and in assay [3] was 100% in each case. Moreover, the pest or weed control at 1120.85 g/ha in assay [2] and in assay [3] was 100% throughout.
With `Clc1cccc2sc(-n3cnnc3)nc12` [Example 70], in assay [2], the pest or weed control at 280.212 g/ha was 100% and the pest or weed control at 1120.85 g/ha came out at 100%. The pest or weed control at 280.212 g/ha in assay [3] turned out to be 100%.
With `CCCCn1cnnc1SC` [Example 102, 3-methylmercapto-4-n-butyl-1,2,4-triazole], the pest or weed control at 280.212 g/ha in assay [2] turned out to be 100%; in assay [3], 51%. Besides, the pest or weed control at 1120.85 g/ha stood at 100% in assay [2] and 51% in assay [3].
For the molecule `Clc1ccc(SCCn2cnnc2)cc1` [Example 30, 4-(2-(4-chlorothiophenoxy)ethyl)-1,2,4-triazole], in assay [2], the pest or weed control at 280.212 g/ha stood at 90% and the pest or weed control at 1120.85 g/ha came out at 95%. Also, in assay [3], the pest or weed control at 280.212 g/ha was 35% and the pest or weed control at 1120.85 g/ha turned out to be 75%.
Regarding `Clc1ccc(SCCn2cnnc2)cc1Cl` [Example 31, 4-(2-(3,4-dichlorothiophenoxy)ethyl)-1,2,4-triazole], the pest or weed control at 280.212 g/ha worked out at 95% in assay [2] and 45% in assay [3]. Also, the results for the pest or weed control at 1120.85 g/ha in assay [2] and in assay [3] were 98% and 60%, respectively.
Take `CCn1cnnc1S` [Example 74, 3-mercapto-4-ethyl-1,2,4-triazole]: the pest or weed control at 280.212 g/ha in assay [2] was determined as 40%; in assay [3], 0%. In addition, the pest or weed control at 1120.85 g/ha in assay [2] turned out to be 60%; in assay [3], 0%.
Regarding “4-(1,3-dihydroxypropyl)-1,2,4-triazole [Example 22]”, the “% Control (without rain)” value in assay [2] (0.25 lb.) and in assay [2] (1 lb.) was 90% in each case. Also, the “% Control (with 1" of rain)” value in assay [3] (0.25 lb.) and in assay [3] (1 lb.) was 0% each time.
Consider `OCCn1cnnc1` [Example 17, 4-(2-hydroxyethyl)-1,2,4-triazole], for which the pest or weed control at 280.212 g/ha in assay [2] is 60%; in assay [3] it was 0%. The pest or weed control at 1120.85 g/ha came out at 5% in assay [2] and 0% in assay [3].
